{
  "source": "patent US8952024B2",
  "about": "“Herbicidal pyrimidone derivatives” (E I du Pont de Nemours and Company, priority 2009, dated 2015)",
  "assay_type_in_all_cases": "in vivo",
  "key": {"[1]": {"tested_on": "bermudagrass (Cynodon dactylon)", "test": "Test B pre-/postemergence plant response", "summary_of_the_method": "(§1)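 Greenhouse herbicide screen. Pre- and postemergence (1- to 4-leaf) spray of compound in solvent/surfactant mixture; loam–sand soil for pre, peat/vermiculite medium for post. Visual control rating 0–100 at 13 to 15 days after treatment.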"}, "[2]": {"tested_on": "blackgrass (Alopecurus myosuroides)", "test": "Test B pre-/postemergence plant response", "summary_of_the_method": "as §1"}, "[3]": {"tested_on": "cocklebur (Xanthium strumarium)", "test": "Test B pre-/postemergence plant response", "summary_of_the_method": "as §1"}, "[4]": {"tested_on": "downy bromegrass (Bromus tectorum)", "test": "Test B pre-/postemergence plant response", "summary_of_the_method": "as §1"}, "[5]": {"tested_on": "giant foxtail (Setaria faberii)", "test": "Test B pre-/postemergence plant response", "summary_of_the_method": "as §1"}, "[6]": {"tested_on": "green foxtail (Setaria viridis)", "test": "Test B pre-/postemergence plant response", "summary_of_the_method": "as §1"}, "[7]": {"tested_on": "johnsongrass (Sorghum halepense)", "test": "Test B pre-/postemergence plant response", "summary_of_the_method": "as §1"}, "[8]": {"tested_on": "kochia (Kochia scoparia)", "test": "Test B pre-/postemergence plant response", "summary_of_the_method": "as §1"}, "[9]": {"tested_on": "morningglory (Ipomoea coccinea)", "test": "Test B pre-/postemergence plant response", "summary_of_the_method": "as §1"}, "[10]": {"tested_on": "ragweed (common ragweed, Ambrosia elatior)", "test": "Test B pre-/postemergence plant response", "summary_of_the_method": "as §1"}, "[11]": {"tested_on": "soybean (Glycine max)", "test": "Test B pre-/postemergence plant response", "summary_of_the_method": "as §1"}, "[12]": {"tested_on": "velvetleaf (Abutilon theophrasti)", "test": "Test B pre-/postemergence plant response", "summary_of_the_method": "as §1"}, "[13]": {"tested_on": "wheat (Triticum aestivum)", "test": "Test B pre-/postemergence plant response", "summary_of_the_method": "as §1"}, "[14]": {"tested_on": "wild oat (Avena fatua)", "test": "Test B pre-/postemergence plant response", "summary_of_the_method": "as §1"}, "[15]": {"tested_on": "yellow nutsedge (Cyperus esculentus)", "test": "Test B pre-/postemergence plant response", "summary_of_the_method": "as §1"}, "[16]": {"tested_on": "canarygrass (Phalaris minor)", "test": "Test B postemergence plant response", "summary_of_the_method": "(§2)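 Plants grown in peat/vermiculite medium were sprayed postemergence at 2–18 cm height (1- to 4-leaf stage). After 13–15 days in the greenhouse, response was rated visually against untreated controls on a 0–100 scale (0 no effect, 100 complete control).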"}, "[17]": {"tested_on": "chickweed (Stellaria media)", "test": "Test B postemergence plant response", "summary_of_the_method": "as §2"}, "[18]": {"tested_on": "windgrass (Apera spica-venti)", "test": "Test B postemergence plant response", "summary_of_the_method": "as §2"}, "[19]": {"conditions": "31 g ai/ha, postemergence, scale 0 to 100, 0 is no effect, 100 is complete control"}, "[20]": {"conditions": "62 g ai/ha, postemergence, 0 is no effect, 100 is complete control, 13 to 15 days"}, "[21]": {"conditions": "Postemergence, 125 g ai/ha, visual rating after 13 to 15 days, scale 0 (no effect) to 100 (complete control)"}, "[22]": {"conditions": "Postemergence, 250 g ai/ha, scale 0 to 100 (0 no effect, 100 complete control)"}},
  "data": [
    {"smiles": "O=C1CCCC(O)=C1C(=O)c1cnc(C2CC2)n(-c2ccccc2)c1=O", "note": "[Compound 87]", "values": [
      {"measurement": "Plant response rating, Bermudagrass", "setting": "[1]; [19]", "value": 90},
      {"measurement": "Bermudagrass plant response rating (0 to 100 scale)", "setting": "[1]; [20]", "value": 90},
      {"measurement": "Plant response rating, Bermudagrass", "setting": "[1]; [21]", "value": 98},
      {"measurement": "Plant response rating, Bermudagrass", "setting": "[1]; [22]", "value": 100},
      {"measurement": "Plant response rating, Blackgrass", "setting": "[2]; [19]", "value": 5},
      {"measurement": "Blackgrass plant response rating (0 to 100 scale)", "setting": "[2]; [20]", "value": 5},
      {"measurement": "Plant response rating, Blackgrass", "setting": "[2]; [21]", "value": 20},
      {"measurement": "Plant response rating, Blackgrass", "setting": "[2]; [22]", "value": 40},
      {"measurement": "Plant response rating, Cocklebur", "setting": "[3]; [19]", "value": 98},
      {"measurement": "Cocklebur plant response rating (0 to 100 scale)", "setting": "[3]; [20]", "value": 100},
      {"measurement": "Plant response rating, Cocklebur", "setting": "[3]; [21]", "value": 100},
      {"measurement": "Plant response rating, Cocklebur", "setting": "[3]; [22]", "value": 100},
      {"measurement": "Plant response rating, Bromegrass, Downy", "setting": "[4]; [19]", "value": 20},
      {"measurement": "Bromegrass, Downy plant response rating (0 to 100 scale)", "setting": "[4]; [20]", "value": 50},
      {"measurement": "Plant response rating, Bromegrass, Downy", "setting": "[4]; [21]", "value": 60},
      {"measurement": "Plant response rating, Bromegrass, Downy", "setting": "[4]; [22]", "value": 80},
      {"measurement": "Plant response rating, Foxtail, Giant", "setting": "[5]; [19]", "value": 75},
      {"measurement": "Foxtail, Giant plant response rating (0 to 100 scale)", "setting": "[5]; [20]", "value": 80},
      {"measurement": "Plant response rating, Foxtail, Giant", "setting": "[5]; [22]", "value": 95},
      {"measurement": "Plant response rating, Foxtail, Green", "setting": "[6]; [19]", "value": 75},
      {"measurement": "Foxtail, Green plant response rating (0 to 100 scale)", "setting": "[6]; [20]", "value": 80},
      {"measurement": "Plant response rating, Foxtail, Green", "setting": "[6]; [22]", "value": 95},
      {"measurement": "Plant response rating, Johnsongrass", "setting": "[7]; [19]", "value": 5},
      {"measurement": "Johnsongrass plant response rating (0 to 100 scale)", "setting": "[7]; [20]", "value": 25},
      {"measurement": "Plant response rating, Johnsongrass", "setting": "[7]; [22]", "value": 45},
      {"measurement": "Plant response rating, Kochia", "setting": "[8]; [19]", "value": 100},
      {"measurement": "Kochia plant response rating (0 to 100 scale)", "setting": "[8]; [20]", "value": 100},
      {"measurement": "Plant response rating, Kochia", "setting": "[8]; [22]", "value": 100},
      {"measurement": "Plant response rating, Morningglory", "setting": "[9]; [19]", "value": 45},
      {"measurement": "Morningglory plant response rating (0 to 100 scale)", "setting": "[9]; [20]", "value": 45},
      {"measurement": "Plant response rating, Morningglory", "setting": "[9]; [22]", "value": 65},
      {"measurement": "Plant response rating, Ragweed", "setting": "[10]; [19]", "value": 85},
      {"measurement": "Ragweed plant response rating (0 to 100 scale)", "setting": "[10]; [20]", "value": 95},
      {"measurement": "Plant response rating, Ragweed", "setting": "[10]; [22]", "value": 98},
      {"measurement": "Plant response rating, Soybean", "setting": "[11]; [19]", "value": 98},
      {"measurement": "Soybean plant response rating (0 to 100 scale)", "setting": "[11]; [20]", "value": 98},
      {"measurement": "Plant response rating, Soybean", "setting": "[11]; [22]", "value": 100},
      {"measurement": "Plant response rating, Velvetleaf", "setting": "[12]; [19]", "value": 100},
      {"measurement": "Velvetleaf plant response rating (0 to 100 scale)", "setting": "[12]; [20]", "value": 100},
      {"measurement": "Plant response rating, Velvetleaf", "setting": "[12]; [22]", "value": 100},
      {"measurement": "Plant response rating, Wheat", "setting": "[13]; [19]", "value": 35},
      {"measurement": "Wheat plant response rating (0 to 100 scale)", "setting": "[13]; [20]", "value": 35},
      {"measurement": "Plant response rating, Wheat", "setting": "[13]; [22]", "value": 50},
      {"measurement": "Plant response rating, Oat, Wild", "setting": "[14]; [19]", "value": 50},
      {"measurement": "Oat, Wild plant response rating (0 to 100 scale)", "setting": "[14]; [20]", "value": 60},
      {"measurement": "Plant response rating, Oat, Wild", "setting": "[14]; [22]", "value": 90},
      {"measurement": "Plant response rating, Nutsedge, Yellow", "setting": "[15]; [19]", "value": 10},
      {"measurement": "Nutsedge, Yellow plant response rating (0 to 100 scale)", "setting": "[15]; [20]", "value": 60},
      {"measurement": "Plant response rating, Nutsedge, Yellow", "setting": "[15]; [22]", "value": 75},
      {"measurement": "Plant response rating, Canarygrass", "setting": "[16]; [19]", "value": 0},
      {"measurement": "Canarygrass plant response rating (0 to 100 scale)", "setting": "[16]; [20]", "value": 30},
      {"measurement": "Plant response rating, Canarygrass", "setting": "[16]; [21]", "value": 35},
      {"measurement": "Plant response rating, Canarygrass", "setting": "[16]; [22]", "value": 35},
      {"measurement": "Plant response rating, Chickweed", "setting": "[17]; [19]", "value": 100},
      {"measurement": "Chickweed plant response rating (0 to 100 scale)", "setting": "[17]; [20]", "value": 100},
      {"measurement": "Plant response rating, Chickweed", "setting": "[17]; [21]", "value": 100},
      {"measurement": "Plant response rating, Chickweed", "setting": "[17]; [22]", "value": 100},
      {"measurement": "Plant response rating, Windgrass", "setting": "[18]; [19]", "value": 55},
      {"measurement": "Windgrass plant response rating (0 to 100 scale)", "setting": "[18]; [20]", "value": 60},
      {"measurement": "Plant response rating, Windgrass", "setting": "[18]; [22]", "value": 95}
    ]}
  ]
}
